pKi: −log10 of the molar value.
test system: mice; experiment: Mouse Forced Swim Test (mFST); type: in vivo; settings: 1 mg/Kg i.v., 15 min before swim session, 6 min test
Method: Mouse Forced Swim Test (mFST).
Forced Swim Test (FST) is an animal model used to assess antidepressant compounds in preclinical studies. The FST was performed similar to the method of Porsolt et al. with modifications (Porsolt R D, Bertin A, Jalfre M. Behavioral despair in mice: a primary screening test for antidepressants. Arch Int Pharmacodyn Thér 1977; 229:327-36). In this paradigm, mice are forced to swim in an inescapable cylinder filled with water. Under these conditions, mice will initially try to escape and eventually develop immobility behavior; this behavior is interpreted as a passive stress-coping strategy or depression-like behavior. […] The duration of immobility was evaluated during the total 6 min of the test and expressed as duration (sec) of immobility. […] All testing sessions were recorded with a video camera (Sony Handicam, Model: DCR—HC38E; PAL) and scoring was done using the Forced Swim Scan, Version 2.0 software (Clever Systems Inc., Reston, Va., USA; see Hayashi E, Shimamura M, Kuratani K, Kinoshita M, Hara H. Automated experimental system capturing three behavioral components during murine forced swim test. Life Sci. 2011 Feb. 28; 88(9-10):411-7 and Yuan P, Tragon T, Xia M, Leclair C A, Skoumbourdis A P, Zheng W, Thomas C J, Huang R, Austin C P, Chen G, Guitart X. Phosphodiesterase 4 inhibitors enhance […] in rodents. […]

SMILES	immobility time
Cc1ccc(CN2CC[C@@H](N3CC[C@@H](c4ccc(O)cc4)[C@H](F)C3)C2=O)cc1 [Example 46, P-4, (R)-3-((3S,4S)-3-fluoro-4-(4-hydroxyphenyl)piperidin-1-yl)-1-(4-methylbenzyl)pyrrolidin-2-one]	statistically significant decrease in immobility time

molecular target: NR2B-subtype NMDA receptors (Rattus norvegicus (Rat), UniProt P35439+Q00960); experiment: Radioligand binding assay (3H Ro 25-6981 competition, forebrain membranes); settings: 3H Ro 25-6981 (4 nM), read-out: NR2B Binding Ki
How it was run: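 Rat forebrain membranes competed against [3H]Ro 25-6981 for 1 hr at room temperature, then filtered onto PEI-treated GF/B plates and counted by scintillation. CPM converted to % inhibition, concentration-response curves fitted, Ki derived from at least two experiments.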

NR2B-subtype NMDA receptors, sequence (Q00960 27-1482, other chains not shown): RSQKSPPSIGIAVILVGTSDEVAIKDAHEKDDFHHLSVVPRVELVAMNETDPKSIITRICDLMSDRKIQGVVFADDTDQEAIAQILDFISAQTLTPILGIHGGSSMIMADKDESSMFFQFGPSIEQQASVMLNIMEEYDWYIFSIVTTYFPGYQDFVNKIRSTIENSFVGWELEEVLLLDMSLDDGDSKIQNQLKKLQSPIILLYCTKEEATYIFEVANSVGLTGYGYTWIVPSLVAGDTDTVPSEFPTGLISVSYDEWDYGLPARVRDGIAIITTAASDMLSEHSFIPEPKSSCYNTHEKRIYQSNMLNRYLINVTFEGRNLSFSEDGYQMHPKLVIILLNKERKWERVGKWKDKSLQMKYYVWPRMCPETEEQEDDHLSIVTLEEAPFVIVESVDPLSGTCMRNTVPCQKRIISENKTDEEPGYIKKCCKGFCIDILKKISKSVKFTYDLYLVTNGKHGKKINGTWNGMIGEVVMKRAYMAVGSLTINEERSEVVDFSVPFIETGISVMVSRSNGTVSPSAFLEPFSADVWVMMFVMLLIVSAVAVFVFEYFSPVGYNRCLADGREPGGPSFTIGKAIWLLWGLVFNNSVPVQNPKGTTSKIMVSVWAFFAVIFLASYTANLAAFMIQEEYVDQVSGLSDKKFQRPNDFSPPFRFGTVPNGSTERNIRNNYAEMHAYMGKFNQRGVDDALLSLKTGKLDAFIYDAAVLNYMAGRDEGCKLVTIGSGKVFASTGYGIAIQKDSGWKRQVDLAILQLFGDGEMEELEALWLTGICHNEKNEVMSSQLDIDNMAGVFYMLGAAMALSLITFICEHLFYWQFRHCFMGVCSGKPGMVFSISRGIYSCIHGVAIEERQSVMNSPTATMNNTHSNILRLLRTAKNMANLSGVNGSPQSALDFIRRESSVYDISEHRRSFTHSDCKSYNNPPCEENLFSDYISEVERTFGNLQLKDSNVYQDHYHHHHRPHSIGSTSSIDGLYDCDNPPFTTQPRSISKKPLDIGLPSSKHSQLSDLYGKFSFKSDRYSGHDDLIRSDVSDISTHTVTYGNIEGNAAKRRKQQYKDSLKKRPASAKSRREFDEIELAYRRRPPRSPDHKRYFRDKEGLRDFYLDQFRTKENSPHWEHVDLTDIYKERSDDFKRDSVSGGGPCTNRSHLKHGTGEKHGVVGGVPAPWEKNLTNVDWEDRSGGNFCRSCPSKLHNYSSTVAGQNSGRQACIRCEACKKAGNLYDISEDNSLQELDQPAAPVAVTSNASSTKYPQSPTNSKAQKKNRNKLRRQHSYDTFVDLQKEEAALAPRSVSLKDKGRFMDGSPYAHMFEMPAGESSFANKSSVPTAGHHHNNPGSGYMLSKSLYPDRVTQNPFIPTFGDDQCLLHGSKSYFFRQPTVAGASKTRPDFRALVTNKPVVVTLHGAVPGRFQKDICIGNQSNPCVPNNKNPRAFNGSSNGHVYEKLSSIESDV

SMILES	pKi
O=C1C(N2CCC(c3ccc(O)cc3)CC2)CCN1Cc1ccc(F)cc1 (racemic) [Example 1, 1-(4-Fluorobenzyl)-3-(4-(4-hydroxyphenyl)piperidin-1-yl)pyrrolidin-2-one]	8.52
O=C1[C@H](N2CCC(c3ccc(O)cc3)C(F)(F)C2)CCN1Cc1ccc(Cl)cc1 (stereo partly drawn) [Example 95, P-2, (3R)-1-(4-Chlorobenzyl)-3-(3,3-difluoro-4-(4-hydroxyphenyl)piperidin-1-yl)pyrrolidin-2-one]	7.92
O=C1[C@H](N2CCC(c3ccc(O)cc3)C(F)(F)C2)CCN1Cc1ccc(F)c(F)c1 (single isomer, unassigned) [Example 108, P-2]	7.82
Cc1cc(O)ccc1C1CCN(C2CCN(Cc3ccccc3)C2=O)CC1 (stereo not drawn) [Example 29, 1-Benzyl-3-(4-(4-hydroxy-2-methylphenyl)piperidin-1-yl)pyrrolidin-2-one]	7.11
O=C1[C@H](N2CCC(c3ccc(O)cc3)C(F)(F)C2)CCN1c1ccc(OC(F)F)c(Cl)c1 (stereo partly drawn) [Example 101, P-2, (3R)-1-(3-Chloro-4-(difluoromethoxy)phenyl)-3-(3,3-difluoro-4-(4-hydroxyphenyl)-piperidin-1-yl)pyrrolidin-2-one]	7.96
O=C1C(N2CCC(c3ccc(O)cc3)C(F)(F)C2)CCN1Cc1ccccc1 (single isomer, unassigned) [Example 91, P-2, 1-Benzyl-3-(3,3-difluoro-4-(4-hydroxyphenyl)piperidin-1-yl)pyrrolidin-2-one]	7.85
Cc1ccc(CN2CC[C@H](N3CC(c4ccc(O)cc4)C3)C2=O)cc1F [Example 21b, (S)-1-(3-Fluoro-4-methylbenzyl)-3-(3-(4-hydroxyphenyl)azetidin-1-yl)pyrrolidin-2-one]	6.39
O=C1C(N2CCC(c3ccc(O)cc3)C(F)(F)C2)CCN1Cc1ccccc1 (single isomer, unassigned) [Example 91, P-1, 1-Benzyl-3-(3,3-difluoro-4-(4-hydroxyphenyl)piperidin-1-yl)pyrrolidin-2-one]	7.12
O=C1C(N2CCN(c3ccc(O)cc3)CC2)CCN1Cc1ccc(F)cc1 (stereo not drawn) [Example 113, 1-(4-fluorobenzyl)-3-(4-(4-hydroxyphenyl)piperazin-1-yl)pyrrolidin-2-one]	7.48
O=C1[C@H](N2CCC(c3ccc(O)cc3)CC2)CCN1Cc1ccccc1 [Example 13b, (R)-1-Benzyl-3-(4-(4-hydroxyphenyl)piperidin-1-yl)pyrrolidin-2-one]	8.80

The remaining lines, values ahead:

pKi	SMILES
8.10	O=C1[C@H](N2CC[C@H](c3ccc(O)cc3)[C@@H](F)C2)CCN1Cc1ccccc1 [Example 75, (R)-1-Benzyl-3-((3R,4R)-3-fluoro-4-(4-hydroxyphenyl)-piperidin-1-yl)pyrrolidin-2-one]
8.28	O=C1[C@H](N2CC[C@H](c3ccc(O)cc3)[C@@H](F)C2)CCN1Cc1ccc(C(F)(F)F)cc1 [Example 88, (R)-3-((3R,4R)-3-Fluoro-4-(4-hydroxyphenyl)piperidin-1-yl)-1-(4-(trifluoromethyl)benzyl)-pyrrolidin-2-one]
8.42	Cc1ccc(CN2CC[C@@H](N3CC[C@@H](c4ccc(O)cc4)[C@H](F)C3)C2=O)cc1F [Example 47, P-3, (R)-3-((3S,4S)-3-fluoro-4-(4-hydroxyphenyl)piperidin-1-yl)-1-(3-fluoro-4-methylbenzyl)pyrrolidin-2-one]
7.89	O=C1[C@H](N2CC[C@H](c3ccc(O)cc3)[C@@H](F)C2)CCN1Cc1ccc(F)cc1 [Example 48, P-4]
6.31	O=C1[C@@H](N2CC[C@@H](c3ccc(O)cc3)[C@H](F)C2)CCN1Cc1ccccc1 [Example 57, (S)-1-Benzyl-3-((3S,4S)-3-fluoro-4-(4-hydroxyphenyl)piperidin-1-yl)pyrrolidin-2-one]
≤ 5.30	C[C@@H](c1ccc(F)cc1)N1CC[C@H](N2CC[C@H](c3ccc(O)cc3)[C@@H](F)C2)C1=O [Example 50, P-1, (S)-3-((3R,4R)-3-Fluoro-4-(4-hydroxyphenyl)piperidin-1-yl)-1-((S)-1-(4-fluorophenyl)-ethyl)pyrrolidin-2-one]
6.25	O=C1[C@@H](N2CC[C@@H](c3ccc(O)cc3)[C@H](F)C2)CCN1Cc1ccc(C(F)(F)F)cc1 [Example 71, (S)-3-((3S,4S)-3-Fluoro-4-(4-hydroxyphenyl)piperidin-1-yl)-1-(4-(trifluoromethyl)-benzyl)pyrrolidin-2-one]
6.74	O=C1[C@@H](N2CC[C@@H](c3ccc(O)cc3)[C@H](F)C2)CCN1Cc1ccc(C(F)F)cc1 [Example 114, P-2, (S)-1-(4-(difluoromethyl)benzyl)-3-((3S,4S)-3-fluoro-4-(4-hydroxyphenyl)piperidin-1-yl)pyrrolidin-2-one]
≤ 5.30	C[C@@H](c1ccc(F)cc1)N1CCC(N2CCC(c3ccc(O)cc3)C(F)(F)C2)C1=O (single isomer, unassigned) [Example 56, P-3]
6.70	O=C1C(N2CC[C@H](c3ccc(O)cc3)[C@@H](F)C2)CCN1Cc1ccc(F)c(Cl)c1 (stereo partly drawn) [Example 89, 1-(3-Chloro-4-fluorobenzyl)-3-((3R,4R)-3-fluoro-4-(4-hydroxyphenyl)piperidin-1-yl)pyrrolidin-2-one]
6.10	O=C1C(N2CCCCC(c3ccc(O)cc3)C2)CCN1Cc1ccc(F)cc1 (stereo not drawn) [Example 31, 1-(4-Fluorobenzyl)-3-(3-(4-hydroxyphenyl)azepan-1-yl)pyrrolidin-2-one]

same assay, conditions: 3H Ro 25-6981 (4 nM), read-out: binding Ki

pKi	SMILES
8.40	O=C1C(N2CCC(c3ccc(O)cc3)CC2)CCN1Cc1ccc(F)cc1 (racemic) [Example 1, 1-(4-Fluorobenzyl)-3-(4-(4-hydroxyphenyl)piperidin-1-yl)pyrrolidin-2-one]

molecular target: NR2B-subtype receptors (Mus musculus (Mouse), UniProt P35438+Q01097); experiment: Ex vivo occupancy assay; type: in vivo; settings: mice, after i.v. dosing
Method: 7-9 weeks old male CD-1 mice were dosed intravenously in a vehicle consisting of 10% dimethylacetamide, 40% PEG-400, […], and 30% water with experimental compounds and the forebrains were harvested 15 minutes […] by decapitation. The brain samples were immediately snap-frozen and stored at −80° C. On the following day, the dosed brain samples were thawed on ice for 15-20 minutes followed by homogenization using Polytron for 10 seconds in cold homogenization buffer composed of 50 mM KH2PO4 (pH adjusted to 7.4 with KOH), 1 mM EDTA, 0.005% Triton X 100 and protease inhibitor cocktail (Sigma Aldrich). The crude homogenates were further homogenized using a Dounce homogenizer and the homogenized membrane aliquots from all animals were flash-frozen and stored at −80° C. until further use. The whole homogenization process was performed on ice.
For determining occupancy, the membrane homogenates were first thawed on ice and then needle-homogenized using a 25 gauge needle. The homogenized membrane (6.4 mg/ml) was added to a 96-well plate followed by addition of ^3H Ro 25-6981 (6 nM). […] The filter plates were dried at 50° C. for 20 mins, incubated with microscint 20 for 10 minutes and read on TopCount (Perkin Elmer). […] Non-specific binding was determined using 10 μM Ro 25-6981 added to the wells containing membrane homogenates from vehicle-dosed animals. […]

NR2B-subtype receptors, sequence (Q01097 27-1482, other chains not shown): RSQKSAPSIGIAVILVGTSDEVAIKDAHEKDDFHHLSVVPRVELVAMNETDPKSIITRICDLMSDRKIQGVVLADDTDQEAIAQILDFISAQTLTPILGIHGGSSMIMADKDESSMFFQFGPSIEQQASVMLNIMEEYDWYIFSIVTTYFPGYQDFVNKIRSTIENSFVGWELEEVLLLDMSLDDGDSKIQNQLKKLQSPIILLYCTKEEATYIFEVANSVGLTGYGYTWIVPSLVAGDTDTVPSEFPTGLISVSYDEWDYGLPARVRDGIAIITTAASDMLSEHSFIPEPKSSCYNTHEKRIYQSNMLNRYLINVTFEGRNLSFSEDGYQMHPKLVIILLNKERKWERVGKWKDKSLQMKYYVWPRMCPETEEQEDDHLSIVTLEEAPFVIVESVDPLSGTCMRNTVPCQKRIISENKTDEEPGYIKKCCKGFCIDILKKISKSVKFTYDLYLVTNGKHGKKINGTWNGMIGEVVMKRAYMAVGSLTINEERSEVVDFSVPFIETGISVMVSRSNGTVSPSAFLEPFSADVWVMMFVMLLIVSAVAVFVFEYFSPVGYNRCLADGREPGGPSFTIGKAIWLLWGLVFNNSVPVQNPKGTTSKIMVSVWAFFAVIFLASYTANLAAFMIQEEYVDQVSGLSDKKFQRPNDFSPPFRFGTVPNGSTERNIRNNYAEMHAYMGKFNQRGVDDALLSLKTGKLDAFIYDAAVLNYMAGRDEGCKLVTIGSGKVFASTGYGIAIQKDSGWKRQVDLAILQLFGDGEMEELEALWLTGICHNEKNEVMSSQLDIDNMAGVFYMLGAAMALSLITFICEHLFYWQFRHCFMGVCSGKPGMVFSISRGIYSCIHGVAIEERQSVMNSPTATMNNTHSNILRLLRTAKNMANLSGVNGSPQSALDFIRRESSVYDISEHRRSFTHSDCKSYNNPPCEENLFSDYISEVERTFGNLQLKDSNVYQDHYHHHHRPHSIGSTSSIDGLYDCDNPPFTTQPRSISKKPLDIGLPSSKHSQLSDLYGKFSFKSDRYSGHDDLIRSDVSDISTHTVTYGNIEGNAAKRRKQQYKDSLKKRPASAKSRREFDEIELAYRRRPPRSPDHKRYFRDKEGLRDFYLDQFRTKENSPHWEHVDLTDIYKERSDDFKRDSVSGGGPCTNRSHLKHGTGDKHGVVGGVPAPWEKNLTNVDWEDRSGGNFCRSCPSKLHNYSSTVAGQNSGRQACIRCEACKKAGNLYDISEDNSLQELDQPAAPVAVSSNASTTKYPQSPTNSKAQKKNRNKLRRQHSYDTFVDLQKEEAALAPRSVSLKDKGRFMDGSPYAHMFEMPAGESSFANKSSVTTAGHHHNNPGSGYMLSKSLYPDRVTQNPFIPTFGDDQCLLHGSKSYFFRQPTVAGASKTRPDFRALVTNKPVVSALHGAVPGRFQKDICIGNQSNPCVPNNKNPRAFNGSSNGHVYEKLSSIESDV

SMILES	occupancy of brain-resident NR2B-subtype receptors (in words)
O=C1C(N2CCC(c3ccc(O)cc3)CC2)CCN1Cc1ccc(F)cc1 (racemic) [Example 1, 1-(4-Fluorobenzyl)-3-(4-(4-hydroxyphenyl)piperidin-1-yl)pyrrolidin-2-one]	occupies brain-resident NR2B-subtype receptors
